Assay results from US10035800B2 (AbbVie Inc., priority 2013, dated 2018).

Legend:
BRD4 (BDI_K57-E168) = molecular target: T1, BRD4 (BDI_K57-E168) (Homo sapiens, UniProt O60885); experiment: TR-FRET bromodomain binding assay, first bromodomain of BRD4; conditions: 100 nM probe
T1 construct: BD1: amino acids K57-E168; made in house
Procedure, shortened: (§1)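 His-tagged BRD4 bromodomain (8 nM) was incubated with Eu-anti-His antibody (1 nM) and an Alexa647-labelled BET-inhibitor probe (100 nM for BDI, 30 nM for BDII) in pH 6.0 phosphate buffer with 2% DMSO for 1 h at room temperature. TR-FRET ratio was read, IC50 fitted by 4-parameter logistic, then converted to Ki.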

BRD4 (BDII_E352-M457) = molecular target: T2, BRD4 (BDII_E352-M457) (Homo sapiens, UniProt O60885); experiment: TR-FRET bromodomain binding assay, second bromodomain of BRD4; conditions: 30 nM probe
T2 construct: protocol; made in house
Procedure, shortened: as §1

[1] = test system: breast cancer cell line MX-1; experiment: MX-1 cell line proliferation assay; assay type: cell-based; conditions: MX-1 cells, 3-day proliferation assay, Cell Titer Glo; read-out: Cellular proliferation: EC50
Procedure, shortened: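 EC50 comes from sigmoidal fits of Cell Titer Glo luminescence relative to DMSO controls, with assay MSR 2.1. Ten-point 3-fold dilutions (top 3 or 1 μM final) were added to MX-1 breast cancer cells after overnight adhesion. Cells were at 5000/well and proliferation ran 3 days.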

[2] = TR-FRET assay protocol G (compound 0.92 μM-15 pM)
[3] = TR-FRET assay protocol E (compound 9.19 μM-150 pM)

Molecule | Ki (BRD4 (BDI_K57-E168); [2]) [nM] | Ki (BRD4 (BDII_E352-M457); [2]) [nM] | EC50 [1] [nM] | Ki (BRD4 (BDI_K57-E168); [3]) [nM] | Ki (BRD4 (BDII_E352-M457); [3]) [nM]
Cn1cc2c3c(c[nH]c3c1=O)C(CCC(=O)N1CCNCC1)N(c1ccc(F)cc1F)c1ccc(CS(C)(=O)=O)cc1-2 (stereo not drawn) [Example 131, 4-(2,4-difluorophenyl)-10-methyl-7-((methylsulfonyl)methyl)-3-(3-oxo-3-(piperazin-1-yl)propyl)-3,4-dihydro-1H-1,4,10-triazadibenzo[cd,f]azulen-11(10H)-one] | 10.7 | 2.35 | > 1000 |  | 
4-(2-fluoropyridin-4-yl)-10-methyl-7-((methylsulfonyl)methyl)-3,4-dihydro-1H-1,4,10-triazadibenzo[cd,f]azulen-11(10H)-one [Example 254] | 1.12 | 0.71 | 3.9 |  | 
Cn1cc2c3c(c[nH]c3c1=O)CN(C(=O)Nc1ccc(F)cc1)c1ccc(CS(C)(=O)=O)cc1-2 [Example 46] | 13.7 | 7.48 | 152 |  | 
Cn1cc2c3c(c[nH]c3c1=O)C(Cc1ccccc1)Nc1ccc(CS(C)(=O)=O)cc1-2 (stereo not drawn) [Example 16, 3-benzyl-10-methyl-7-((methylsulfonyl)methyl)-3,4-dihydro-1H-1,4,10-triazadibenzo[cd,f]azulen-11(10H)-one] |  |  | 337 | 92.6 | 18.9
Cn1cc2c3c(c[nH]c3c1=O)C(C(=O)NCCc1ccccc1)N(c1ccc(F)cc1F)c1ccc(CS(C)(=O)=O)cc1-2 (stereo not drawn) [Example 156, 4-(2,4-difluorophenyl)-10-methyl-7-((methylsulfonyl)methyl)-11-oxo-N-phenethyl-3,4,10,11-tetrahydro-1H-1,4,10-triazadibenzo[cd,f]azulene-3-carboxamide] | 46.8 | 42.1 | 214 |  | 
Cn1cc2c3c(c[nH]c3c1=O)C(CN1C(=O)c3ccccc3C1=O)N(c1ccc(F)cc1F)c1ccc(CS(C)(=O)=O)cc1-2 (stereo not drawn) [Example 117, 2-((4-(2,4-difluorophenyl)-10-methyl-7-((methylsulfonyl)methyl)-11-oxo-3,4,10,11-tetrahydro-1H-1,4,10-triazadibenzo[cd,f]azulen-3-yl)methyl)isoindoline-1,3-dione] | 72.3 | 1.27 | > 1000 |  | 
Cn1cc2c3c(c[nH]c3c1=O)C(CCCOc1ccccc1)N(c1ccc(F)cc1F)c1ccc(CS(C)(=O)=O)cc1-2 (single isomer, unassigned) [Example 144] | > 238 | 18.8 | 318 |  | 
Cn1cc2c3c(c[nH]c3c1=O)CN(C(C#N)c1ccccc1)c1ccc(CS(C)(=O)=O)cc1-2 (stereo not drawn) [Example 261] | 9.32 | 7.78 | > 1000 |  | 
Cn1cc2c3c(c[nH]c3c1=O)C(CCC(=O)NCc1ccccc1)N(c1ccc(F)cc1F)c1ccc(CS(C)(=O)=O)cc1-2 (stereo not drawn) [Example 123, N-benzyl-3-(4-(2,4-difluorophenyl)-10-methyl-7-((methylsulfonyl)methyl)-11-oxo-3,4,10,11-tetrahydro-1H-1,4,10-triazadibenzo[cd,f]azulen-3-yl)propanamide] | 9.95 | 0.983 | > 1000 |  | 
Cn1cc2c3c(c[nH]c3c1=O)C(c1cccc(-c3ccccn3)c1)N(c1ccc(F)cc1F)c1ccc(CS(C)(=O)=O)cc1-2 (racemic) [Example 236, 4-(2,4-difluorophenyl)-10-methyl-7-((methylsulfonyl)methyl)-3-(3-(pyridin-2-yl)phenyl)-3,4-dihydro-1H-1,4,10-triazadibenzo[cd,f]azulen-11(10H)-one] | 85.9 | 30 | > 1000 |  | 
Cn1cc2c3c(c[nH]c3c1=O)C(c1ccc(-n3ccnc3)cc1)N(c1ccc(F)cc1F)c1ccc(CS(C)(=O)=O)cc1-2 (racemic) [Example 234, 3-(4-(1H-imidazol-1-yl)phenyl)-4-(2,4-difluorophenyl)-10-methyl-7-((methylsulfonyl)methyl)-3,4-dihydro-1H-1,4,10-triazadibenzo[cd,f]azulen-11(10H)-one] | 10.3 | 9.4 | > 1000 |  | 

Now from value to molecule:

Ki (BRD4 (BDI_K57-E168); [2]) [nM] | Ki (BRD4 (BDII_E352-M457); [2]) [nM] | EC50 [1] [nM] | Ki (BRD4 (BDI_K57-E168); [3]) [nM] | Ki (BRD4 (BDII_E352-M457); [3]) [nM] | Molecule
7.02 | 0.97 | 20.3 |  |  | COCCCC1c2c[nH]c3c(=O)n(C)cc(c23)-c2cc(CS(C)(=O)=O)ccc2N1c1ccc(F)cc1F (stereo not drawn) [Example 147, 4-(2,4-difluorophenyl)-3-(3-methoxypropyl)-10-methyl-7-((methylsulfonyl)methyl)-3,4-dihydro-1H-1,4,10-triazadibenzo[cd,f]azulen-11(10H)-one]
12.6 | 1.38 | 174 |  |  | CNC(=O)CCC1c2c[nH]c3c(=O)n(C)cc(c23)-c2cc(CS(C)(=O)=O)ccc2N1c1ccc(F)cc1F (stereo not drawn) [Example 118, 3-(4-(2,4-difluorophenyl)-10-methyl-7-((methylsulfonyl)methyl)-11-oxo-3,4,10,11-tetrahydro-1H-1,4,10-triazadibenzo[cd,f]azulen-3-yl)-N-methylpropanamide]
2.02 | 1.27 | 3.72 |  |  | Cn1cc2c3c(c[nH]c3c1=O)CN(c1ccc(F)cc1)c1ccc(CC#N)cc1-2 [Example 177, 2-(4-(4-fluorophenyl)-10-methyl-11-oxo-3,4,10,11-tetrahydro-1H-1,4,10-triazadibenzo[cd,f]azulen-7-yl)acetonitrile]
2.54 | 2.1 | 4.69 |  |  | CCOC(=O)N1Cc2c[nH]c3c(=O)n(C)cc(c23)-c2cc(CS(C)(=O)=O)ccc21 [Example 87, ethyl 10-methyl-7-((methylsulfonyl)methyl)-11-oxo-10,11-dihydro-1H-1,4,10-triazadibenzo[cd,f]azulene-4(3H)-carboxylate]
2.34 | 3.15 | 4.41 |  |  | CC#CCOC(=O)N1Cc2c[nH]c3c(=O)n(C)cc(c23)-c2cc(CS(C)(=O)=O)ccc21 [Example 98, but-2-yn-1-yl 10-methyl-7-((methylsulfonyl)methyl)-11-oxo-10,11-dihydro-1H-1,4,10-triazadibenzo[cd,f]azulene-4(3H)-carboxylate]
 |  | 8.7 | 1.74 | 0.847 | Cn1cc2c3c(c[nH]c3c1=O)CN(CC1CCN(C(=O)OC(C)(C)C)C1)c1ccc(CS(C)(=O)=O)cc1-2 (racemic) [Example 25, tert-butyl 3-((10-methyl-7-((methylsulfonyl)methyl)-11-oxo-10,11-dihydro-1H-1,4,10-triazadibenzo[cd,f]azulen-4(3H)-yl)methyl)pyrrolidine-1-carboxylate]
7.7 | 3.31 | 84 |  |  | COC(=O)CCC(=O)N1Cc2c[nH]c3c(=O)n(C)cc(c23)-c2cc(CS(C)(=O)=O)ccc21 [Example 111, methyl 4-(10-methyl-7-((methylsulfonyl)methyl)-11-oxo-10,11-dihydro-1H-1,4,10-triazadibenzo[cd,f]azulen-4(3H)-yl)-4-oxobutanoate]
39.6 | 23.9 | 77.4 |  |  | CCCCNC(=O)C1c2c[nH]c3c(=O)n(C)cc(c23)-c2cc(CS(C)(=O)=O)ccc2N1c1ccc(F)cc1F (stereo not drawn) [Example 157, N-butyl-4-(2,4-difluorophenyl)-10-methyl-7-((methylsulfonyl)methyl)-11-oxo-3,4,10,11-tetrahydro-1H-1,4,10-triazadibenzo[cd,f]azulene-3-carboxamide]
